Experimental data reported in patent publication US8414926B1, “Nanoparticles with covalently bound surfactant for drug delivery” (University of South Florida, priority 2006, dated 2013).
Counter-ions that a name gives are not always drawn.

Tested on: human dermal fibroblasts
Experiment: Effect of surfactant combined with control nanoparticles on fibroblasts
Format: cell-based
Settings: for toxicity to fibroblasts: combined with control nanoparticles, human dermal fibroblasts
Procedure: FIG. 1 is a graph showing the effect of dodecyl sulfate combined with control nanoparticles against human dermal fibroblasts.
The control nanoparticles were added to the wells as an emulsion having 5% solid content, which reduced the amount of surfactant to 0.75%; therefore, more surfactant was added to the emulsion prior to placement in the cell-containing wells in order to reach the designated amounts of surfactant being tested. […] This may be due to interactions of the surfactant with the nanoparticles, which may prohibit the surfactant from interacting with the cells.

In the case of CCCCCCCCCCCCOS(=O)(=O)O [dodecyl sulfate], the toxicity to fibroblasts (1% surfactant) is reported as “least toxic”, the toxicity to fibroblasts (9% surfactant) is reported as “kills all of the cells” and the “toxicity to fibroblasts combined with control nanoparticles versus without control nanoparticles” value (healthy fibroblasts) is reported as “much less toxic”.
